Patent publication US11071300B2, “Pesticidally active pyrazole derivatives” (SYNGENTA PARTICIPATIONS AG, priority 2017, dated 2021)
Like-named read-outs stand apart in the source and are kept apart here.

Columns and labels:
Format in all cases: in vivo
Diabrotica Balteata = assay: Diabrotica balteata (corn root worm) maize sprout test; conditions: 96 h, read-out: control (mortality and growth inhibition)
Experimental: Diabrotica Balteata, (Corn Root Worm)
Maize sprouts, placed on an agar layer in 24-well microtiter plates were treated with aqueous test solutions prepared from 10′000 ppm DMSO stock solutions by spraying. After drying, the plates were infested with L2 larvae (6 to 10 per well). The samples were assessed for mortality and growth inhibition in comparison to untreated samples 4 days after infestation.

Spodoptera littoralis = Spodoptera littoralis (Egyptian cotton leaf worm) leaf disc test; conditions: foliar, 72 h, application rate 200 ppm, cotton leaf discs sprayed, L1 larvae, 3 days after infestation, read-out: control (at least one of mortality, anti-feedant effect, growth inhibition)
How it was run: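 Cotton leaf discs on agar were sprayed with aqueous dilutions of 10′000 ppm DMSO stocks, dried and infested with five L1 larvae. Mortality, anti-feedant effect and growth inhibition were scored against untreated samples 3 days after infestation. Control = any of these higher than untreated.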

Tetranychus urticae = Tetranychus urticae (two-spotted spider mite) leaf disc test; conditions: foliar, 192 h, read-out: control (mortality on mixed population, mobile stages)
Experimental: Tetranychus urticae (Two-Spotted Spider Mite):
Bean leaf discs on agar in 24-well microtiter plates were sprayed with aqueous test solutions prepared from 10′000 ppm DMSO stock solutions. After drying the leaf discs were infested with a mite population of mixed ages. The samples were assessed for mortality on mixed population (mobile stages) 8 days after infestation.

Myzus persicae = Myzus persicae (green peach aphid) leaf disc test; conditions: foliar, 144 h, read-out: control (mortality)
Experimental: Myzus persicae (Green Peach Aphid):
Sunflower leaf discs were placed on agar in a 24-well microtiter plate and sprayed with test solutions at an application rate of 200 ppm. After drying, the leaf discs were infested with an aphid population of mixed ages. After an incubation period of 6 DAT, samples were checked for mortality.

Plutella xylostella = Plutella xylostella (diamond back moth) artificial diet test; conditions: 120 h, read-out: control (mortality and growth inhibition)
Experimental: Plutella xylostella (Diamond Back Moth):
24-well microtiter plates with artificial diet were treated with aqueous test solutions prepared from 10′000 ppm DMSO stock solutions by pipetting. After drying, the plates were infested with L2 larvae (10 to 15 per well). The samples were assessed for mortality and growth inhibition in comparison to untreated samples 5 days after infestation.

Thrips tabaci = Thrips tabaci (onion thrips) leaf disc test; conditions: foliar, 144 h, read-out: control (mortality)
Experimental: Thrips tabaci (Onion Thrips):
Sunflower leaf discs were placed on agar in 24-well microtiter plates and sprayed with aqueous test solutions prepared from 10′000 ppm DMSO stock solutions. After drying the leaf discs were infested with a thrips population of mixed ages. The samples were assessed for mortality 6 days after infestation.

Euschistus heros = Euschistus heros (neotropical brown stink bug) soybean leaf test; conditions: 120 h, read-out: control (mortality and growth inhibition)
Experimental: Euschistus heros (Neotropical Brown Stink Bug):
Soybean leaves on agar in 24-well microtiter plates were sprayed with aqueous test solutions prepared from 10′000 ppm DMSO stock solutions. After drying the leaves were infested with N2 nymphs. The samples were assessed for mortality and growth inhibition in comparison to untreated samples 5 days after infestation.

[1] = application rate 200 ppm, maize sprouts sprayed, L2 larvae, 4 days after infestation
[2] = application rate 200 ppm, bean leaf discs sprayed, 8 days after infestation
[3] = application rate 200 ppm, sunflower leaf discs sprayed, mixed ages, 6 DAT
[4] = application rate 200 ppm, artificial diet, L2 larvae, 5 days after infestation
[5] = application rate 200 ppm, sunflower leaf discs sprayed, mixed ages, 6 days after infestation
[6] = application rate 200 ppm, soybean leaves sprayed, N2 nymphs, 5 days after infestation

Cn1nc(OS(=O)(=O)C(F)(C(F)(F)F)C(F)(F)F)c(C(F)(F)F)c1-n1cc(-c2ccc(Cl)c(C(=O)N(C(=O)C(C)(C)C)C3(C#N)CC3)c2)cn1 [Compound 59, [5-[4-[4-chloro-3-[(1-cyanocyclopropyl)-(2,2-dimethylpropanoyl)carbamoyl]phenyl]pyrazol-1-yl]-1-methyl-4-(trifluoromethyl)pyrazol-3-yl] 1,1,1,2,3,3,3-heptafluoropropane-2-sulfonate]
≥ 80%: mortality at 200 ppm (Diabrotica Balteata; [1]) | percent control (mortality, anti-feedant effect or growth inhibition) at 200 ppm (Spodoptera littoralis) | mortality at 200 ppm (Tetranychus urticae; [2]) | mortality at 200 ppm (Myzus persicae; [3]) | mortality at 200 ppm (Plutella xylostella; [4]) | mortality at 200 ppm (Thrips tabaci; [5]) | mortality at 200 ppm (Euschistus heros; [6])

CCC(=O)N(C(=O)c1cc(-c2cnn(-c3c(C(F)(F)F)c(OS(=O)(=O)C(F)(C(F)(F)F)C(F)(F)F)nn3C)c2)ccc1Cl)C1(C#N)CC1 [Compound 54, [5-[4-[4-chloro-3-[(1-cyanocyclopropyl)-propanoyl-carbamoyl]phenyl]pyrazol-1-yl]-1-methyl-4-(trifluoromethyl)pyrazol-3-yl] 1,1,1,2,3,3,3-heptafluoropropane-2-sulfonate]
≥ 80%: mortality at 200 ppm (Diabrotica Balteata; [1]) | percent control (mortality, anti-feedant effect or growth inhibition) at 200 ppm (Spodoptera littoralis) | mortality at 200 ppm (Tetranychus urticae; [2]) | mortality at 200 ppm (Myzus persicae; [3]) | mortality at 200 ppm (Plutella xylostella; [4]) | mortality at 200 ppm (Thrips tabaci; [5]) | mortality at 200 ppm (Euschistus heros; [6])

Cn1nc(OS(=O)(=O)C(F)(C(F)(F)F)C(F)(F)F)c(C(F)(F)F)c1-c1cc(-c2ccc(Cl)c(C(=O)NC3CC3)c2)on1 [Compound 33, [5-[5-[4-chloro-3-(cyclopropylcarbamoyl)phenyl]isoxazol-3-yl]-1-methyl-4-(trifluoromethyl)pyrazol-3-yl] 1,1,1,2,3,3,3-heptafluoropropane-2-sulfonate]
≥ 80%: mortality at 200 ppm (Diabrotica Balteata; [1]) | percent control (mortality, anti-feedant effect or growth inhibition) at 200 ppm (Spodoptera littoralis) | mortality at 200 ppm (Tetranychus urticae; [2]) | mortality at 200 ppm (Myzus persicae; [3]) | mortality at 200 ppm (Plutella xylostella; [4]) | mortality at 200 ppm (Thrips tabaci; [5]) | mortality at 200 ppm (Euschistus heros; [6])

Cn1nc(OS(=O)(=O)C(F)(C(F)(F)F)C(F)(F)F)c(C(F)(F)F)c1-n1cc(-c2ccc(Cl)c(C(=O)N(C=O)C3(C#N)CC3)c2)cn1 [Compound 57, [5-[4-[4-chloro-3-[(1-cyanocyclopropyl)-formyl-carbamoyl]phenyl]pyrazol-1-yl]-1-methyl-4-(trifluoromethyl)pyrazol-3-yl] 1,1,1,2,3,3,3-heptafluoropropane-2-sulfonate]
≥ 80%: mortality at 200 ppm (Diabrotica Balteata; [1]) | percent control (mortality, anti-feedant effect or growth inhibition) at 200 ppm (Spodoptera littoralis) | mortality at 200 ppm (Tetranychus urticae; [2]) | mortality at 200 ppm (Myzus persicae; [3]) | mortality at 200 ppm (Plutella xylostella; [4]) | mortality at 200 ppm (Thrips tabaci; [5]) | mortality at 200 ppm (Euschistus heros; [6])

Cn1nc(OS(=O)(=O)C(F)(F)C(F)(F)Cl)c(C(F)(F)F)c1-n1cc(-c2ccc(Cl)c(C(=O)NC3CC3)c2)cn1 [Compound 9, [5-[4-[4-chloro-3-(cyclopropylcarbamoyl)phenyl]pyrazol-1-yl]-1-methyl-4-(trifluoromethyl)pyrazol-3-yl] 2-chloro-1,1,2,2-tetrafluoro-ethanesulfonate]
≥ 80%: mortality at 200 ppm (Diabrotica Balteata; [1]) | percent control (mortality, anti-feedant effect or growth inhibition) at 200 ppm (Spodoptera littoralis) | mortality at 200 ppm (Tetranychus urticae; [2]) | mortality at 200 ppm (Myzus persicae; [3]) | mortality at 200 ppm (Plutella xylostella; [4]) | mortality at 200 ppm (Thrips tabaci; [5]) | mortality at 200 ppm (Euschistus heros; [6])

CN(C(=O)c1cc(-c2cc(-c3c(C(F)(F)F)c(OS(=O)(=O)C(F)(C(F)(F)F)C(F)(F)F)nn3C)no2)ccc1Cl)C1(C#N)CC1 [Compound 37, [5-[5-[4-chloro-3-[(1-cyanocyclopropyl)-methyl-carbamoyl]phenyl]isoxazol-3-yl]-1-methyl-4-(trifluoromethyl)pyrazol-3-yl] 1,1,1,2,3,3,3-heptafluoropropane-2-sulfonate]
≥ 80%: mortality at 200 ppm (Diabrotica Balteata; [1]) | percent control (mortality, anti-feedant effect or growth inhibition) at 200 ppm (Spodoptera littoralis) | mortality at 200 ppm (Tetranychus urticae; [2]) | mortality at 200 ppm (Myzus persicae; [3]) | mortality at 200 ppm (Plutella xylostella; [4]) | mortality at 200 ppm (Thrips tabaci; [5]) | mortality at 200 ppm (Euschistus heros; [6])

CN(C(=O)c1cc(-c2cc(-c3c(C(F)(F)F)c(OS(=O)(=O)C(F)(C(F)(F)F)C(F)(F)F)nn3C)no2)ccc1Cl)C1CC1 [Compound 34, [5-[5-[4-chloro-3-[cyclopropyl(methyl)carbamoyl]phenyl]isoxazol-3-yl]-1-methyl-4-(trifluoromethyl)pyrazol-3-yl] 1,1,1,2,3,3,3-heptafluoropropane-2-sulfonate]
≥ 80%: mortality at 200 ppm (Diabrotica Balteata; [1]) | percent control (mortality, anti-feedant effect or growth inhibition) at 200 ppm (Spodoptera littoralis) | mortality at 200 ppm (Tetranychus urticae; [2]) | mortality at 200 ppm (Myzus persicae; [3]) | mortality at 200 ppm (Plutella xylostella; [4]) | mortality at 200 ppm (Thrips tabaci; [5]) | mortality at 200 ppm (Euschistus heros; [6])

Cn1nc(OS(=O)(=O)C(F)(C(F)(F)F)C(F)(F)F)c(C(F)(F)F)c1-n1cc(-c2cnc(Cl)c(C(=O)NC3CC3)c2)cn1 [Compound 21, [5-[4-[6-chloro-5-(cyclopropylcarbamoyl)-3-pyridyl]pyrazol-1-yl]-1-methyl-4-(trifluoromethyl)pyrazol-3-yl] 1,1,1,2,3,3,3-heptafluoropropane-2-sulfonate]
≥ 80%: mortality at 200 ppm (Diabrotica Balteata; [1]) | percent control (mortality, anti-feedant effect or growth inhibition) at 200 ppm (Spodoptera littoralis) | mortality at 200 ppm (Tetranychus urticae; [2]) | mortality at 200 ppm (Myzus persicae; [3]) | mortality at 200 ppm (Plutella xylostella; [4]) | mortality at 200 ppm (Thrips tabaci; [5]) | mortality at 200 ppm (Euschistus heros; [6])

CC(C)C(=O)N(C(=O)c1cc(-c2cnn(-c3c(C(F)(F)F)c(OS(=O)(=O)C(F)(C(F)(F)F)C(F)(F)F)nn3C)c2)ccc1Cl)C1(C#N)CC1 [Compound 60, [5-[4-[4-chloro-3-[(1-cyanocyclopropyl)-(2-methylpropanoyl)carbamoyl]phenyl]pyrazol-1-yl]-1-methyl-4-(trifluoromethyl)pyrazol-3-yl] 1,1,1,2,3,3,3-heptafluoropropane-2-sulfonate]
≥ 80%: mortality at 200 ppm (Diabrotica Balteata; [1]) | percent control (mortality, anti-feedant effect or growth inhibition) at 200 ppm (Spodoptera littoralis) | mortality at 200 ppm (Tetranychus urticae; [2]) | mortality at 200 ppm (Myzus persicae; [3]) | mortality at 200 ppm (Plutella xylostella; [4]) | mortality at 200 ppm (Thrips tabaci; [5]) | mortality at 200 ppm (Euschistus heros; [6])

COC(=O)N(C(=O)c1cc(-c2cnn(-c3c(C(F)(F)F)c(OS(=O)(=O)C(F)(C(F)(F)F)C(F)(F)F)nn3C)c2)ccc1Cl)C1(C#N)CC1 [Compound 52, [5-[4-[4-chloro-3-[(1-cyanocyclopropyl)-methoxycarbonyl-carbamoyl]phenyl]pyrazol-1-yl]-1-methyl-4-(trifluoromethyl)pyrazol-3-yl] 1,1,1,2,3,3,3-heptafluoropropane-2-sulfonate]
≥ 80%: mortality at 200 ppm (Diabrotica Balteata) | percent control (mortality, anti-feedant effect or growth inhibition) at 200 ppm (Spodoptera littoralis) | mortality at 200 ppm (Tetranychus urticae) | mortality at 200 ppm (Myzus persicae) | mortality at 200 ppm (Plutella xylostella) | mortality at 200 ppm (Thrips tabaci) | mortality at 200 ppm (Euschistus heros)
